From patent US12083114B2, “Inhibitors of SARM1 in combination with neuro-protective agents” (Disarm Therapeutics, Inc., priority 2018, dated 2024) come the findings set out here.

In the assay the test system is DRG axons. The experiment in a line: Axon degeneration assay: SARM1 inhibitor with DLK inhibitor, mouse DRG drop culture, manual axotomy. In kind it is cell-based. The note with it: 16 hours post-axotomy. As to the method: Mouse dorsal root ganglion neurons (DRGs) were dissected out of E12.5 CD1 mice (50 ganglia per embryo) and incubated with 0.5% Trypsin solution containing 0.02% EDTA (Gibco) at 37° C. for 15 min. The cells were then triturated by gentle pipetting and washed 3 times with DRG growth medium (Neurobasal medium (Gibco) containing 2% B27 (Invitrogen), 100 ng/ml 2.5S NGF (Harland Bioproducts), […] 5-fluoro-2′ deoxyuridine (Sigma), penicillin, and streptomycin). Cells were suspended in the DRG growth medium. DRG drop cultures were created by spotting 5000 cells/well into the center of each well of a 96-well tissue culture plate coated with poly-D-Lysine (0.1 mg/ml; Sigma) and laminin ([…]; Invitrogen). Cells were allowed to adhere to the plates in a humidified tissue culture incubator (5% CO2) for 15 min and then DRG growth medium was gently added ([…] well). DRG neurons were maintained in neurobasal medium supplemented with L-glutamine (Invitrogen), 2% (vol/vol) B27 (Invitrogen), 50 ng/mL NGF (Harlan Laboratories), and 1 μM 5-fluoro-2′deoxyuridine plus 1 μM uridine (Sigma) to induce death of mitotic cells. DRG neurons were then seeded on plates pre-coated with poly-D-lysine and laminin.
2 hours prior to axotomy, DRG cultures were treated with SARM1 inhibitors, in the continued presence of the DLK inhibitor. […] Isoquinoline SARM1 inhibitors tested included I-26 and I-86, while isothiazole SARM1 inhibitors tested included II-6 and II-32. The SARM1 inhibitors were tested using concentrations ranging from 0.1 to 30 μM.
A manual axotomy was performed at time 0 by transecting the axons of the DRG neurons with a blade. After the axotomy, DRG cultures remained exposed to the SARM1 inhibitor alone, DLK inhibitor alone, or the combination of SARM1 inhibitor and DLK inhibitor. At 16 hours, DRG cultures were fixed in a buffered solution containing 1% PFA and sucrose and stored at 4° C. prior to imaging. Bright-field images of DRG axons and cell bodies were collected using the 20× water immersion lens of a Phenix automated confocal microscope (PerkinElmer) and quantitation of axonal damage was performed using in-house developed scripts (Acapella, PerkinElmer). The effect of DLK inhibitor alone in protecting distal axons from fragmentation was determined at concentrations of 100 nM and 300 nM. The effect of combining the DLK inhibitor with varying concentrations of a SARM1 inhibitor was compared to the individual protective effects of either 100 nM or 300 nM of DLK inhibitor alone or an equivalent concentration of a SARM1 inhibitor alone.

The mark [1] stands for this setting: SARM1 inhibitor alone, 1.1 μM, FIG. 1B/2B.

Turning to `N#Cc1ccnc(Nc2cc(C3CCN(C4COC4)CC3)cc(N3CCC(F)(F)C3)n2)c1` [DLK inhibitor, 2-((6-(3,3-difluoropyrrolidin-1-yl)-4-(1-(oxetan-3-yl)piperidin-4-yl)pyridin-2-yl)amino)isonicotinonitrile, reference compound], the “axonal protection (degeneration index of DRG axons)” value by setting is: (100 nM DLK inhibitor alone) “no axonal protection”; (300 nM DLK inhibitor alone) “modest but statistically significant level of axonal protection”.

Take `Ic1cccc2cnccc12` [I-26]: the “axonal protection (degeneration index of DRG axons)” value reads like this: under setting [1], “modest level of protection”; (SARM1 inhibitor alone, 1.1, 3.3, 10 or 30 μM (all tested concentrations), FIG. 1A) “significant axonal protection over all tested concentrations”.

In the case of `COc1cc(Br)c2ccncc2c1` [I-86], the “axonal protection (degeneration index of DRG axons)” value reads like this: under setting [1], “modest level of axonal protection”; (SARM1 inhibitor alone, 1.1 μM, FIG. 2A) “a small, but statistically significant amount of axonal protection”.

Consider `N#Cc1c(O)nsc1Nc1ccccc1C(F)(F)F` [II-6], for which the “axonal protection (degeneration index of DRG axons)” value is given as “modest level of protection” (SARM1 inhibitor alone, 3.3 μM, FIG. 3B) and “modest, but statistically significant axonal protection” (SARM1 inhibitor alone, 1.1 or 3.3 μM, FIG. 3A).

As to `COCCn1sc(Nc2ccccc2C(F)(F)F)c(C#N)c1=O` [II-32], the “axonal protection (degeneration index of DRG axons)” value by setting is: (SARM1 inhibitor alone, 0.11, 0.33 or 1.1 μM, FIG. 4A) “modest but not statistically significant axonal protection”; (SARM1 inhibitor alone, 0.11, 0.33 or 1.1 μM, FIG. 4B) “only slight and not statistically significant protection”.
